Activity calls are given as the source filed them.

Data set [1] has as its target T1, Heat shock factor protein 1 (Mus musculus, UniProt P38532).
T1 sequence (P38532 whole entry): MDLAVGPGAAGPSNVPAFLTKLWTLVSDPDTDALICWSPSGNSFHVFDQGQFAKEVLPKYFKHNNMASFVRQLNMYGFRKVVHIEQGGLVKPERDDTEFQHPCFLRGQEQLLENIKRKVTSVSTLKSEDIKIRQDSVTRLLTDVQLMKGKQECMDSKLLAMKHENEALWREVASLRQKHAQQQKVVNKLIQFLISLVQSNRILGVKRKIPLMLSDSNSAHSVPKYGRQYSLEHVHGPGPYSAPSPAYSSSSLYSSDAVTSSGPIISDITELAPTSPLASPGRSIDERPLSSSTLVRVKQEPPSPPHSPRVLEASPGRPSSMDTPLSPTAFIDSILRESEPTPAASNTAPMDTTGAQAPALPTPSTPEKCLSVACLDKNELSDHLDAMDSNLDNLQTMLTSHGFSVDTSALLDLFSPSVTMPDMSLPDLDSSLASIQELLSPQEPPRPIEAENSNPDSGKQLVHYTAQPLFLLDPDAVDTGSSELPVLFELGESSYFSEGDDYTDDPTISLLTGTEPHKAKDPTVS
As to the kind of experiment: decrease of HSF1-responsive luciferase luminescence – cell-based, NIH3T3, dose retest, confirmation (AID 2382).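 Also: NIH3T3 fibroblasts with HSF1-driven luciferase reporter stressed by proteasome inhibitor MG132; luminescence from HSF1-driven luciferase expression after 8 hours of MG132 stress.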 It counts as functional.

The test system of a further data set is Escherichia coli. Put plainly: microbe, parasite or virus in culture.
The test system of data set [2] is Jurkat. Put plainly: SAR Analysis of small molecule inhibitors of T-cell specific antigen receptor-induced NF-kB activation in a Jurkat cell line using a luminescence assay - Set 2. [Related pubchem assays (depositor defined):AID435003, AID435012, AID465]. The format is functional, cell-based. The settings on record: Homo sapiens.
Data set [3] has as its system HEK293. As to the kind of experiment: SAR Analysis of small molecule inhibitors of T-cell specific antigen receptor-induced NF-kB activation in a HEK-293T cell line using a luminescence assay - Set 2. [Related pubchem assays (depositor defined):AID435003, AID435012, AID489026]. The format is functional, cell-based. To be noted: Homo sapiens.
Data set [4] has as its system HEK293. Put plainly: HEK293T cell viability loss, resazurin readout – resazurin fluorescence, cytotoxicity control for NF-kB activator project, SAR follow-up (AID 493251). The settings on record: Homo sapiens. The format is functional, cell-based. For orientation: Resazurin is reduced to fluorescent resorufin, in cell work by metabolically active cells.
Data set [5] can be described thus: alpha-synuclein stem-loop translation blockers – luminescence, H4 neuroglioblastoma cells, dose confirmation, confirmation (AID 2454).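 Also: H4 neuroglioblastoma cells carrying an alpha-synuclein 5'UTR luciferase reporter; potency for inhibition of the luciferase signal.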 The format is functional, cell-based.
In data set [6] the test system is Jurkat. As to the kind of experiment: SAR Analysis of small molecule inhibitors of […] specific antigen receptor-induced NF-kB activation in a Jurkat cell line using a luminescence assay - Set 3. [Related pubchem assays (depositor defined):AID435022, AID435025, AID465]. To be noted: Homo sapiens. It counts as functional, cell-based.
Data set [7] in a line: luciferase reporter signal suppression in cells – H4 neuroglioma cells, luminescence, dose response (AID 1990). It counts as functional, cell-based. For orientation: In a reporter assay the amount or activity of a reporter protein is the signal.
Data set [8] in a line: alpha-synuclein stem-loop luciferase translation blockers – H4 neuroglioma cells, luminescence, confirmation (AID 1988). The format is functional, cell-based.
The subject of data set [9] is HEK293. As to the kind of experiment: SAR Analysis of small molecule inhibitors of B-cell specific antigen receptor-induced NF-kB activation in a HEK-293T cell line using a luminescence assay - Set 2. [Related pubchem assays (depositor defined):AID435022, AID435025, AID489021]. It counts as functional, cell-based. To be noted: Homo sapiens.
Data set [10] is described as follows: Luminescence-based counterscreen assay for KLF5 inhibitors: dose response cell-based high throughput screening assay to identify cytotoxic compounds using the IEC-6 intestinal epithelial cell line. [Related pubchem assays: 1700 (Primary screen.), 1834 (Confirmation screen.), 1858 (Summary AID.), 1905 (Counterscreen.)]. The format is functional. Background: Counterscreens check selectivity or assay interference.

Data set [11] in a line: HEK-293T cell viability reduction – luminescence, B-cell screen hits, cytotoxicity control for BCR NF-kB inhibitor project, dose response (AID 489021).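 Also: HEK-293T cells carrying an NF-kB luciferase reporter; cells exposed to compound for about 14 hours before viability readout.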 The format is functional, cell-based.
The next data set in a line: cells. The format is functional, cell-based.
Data set [12] in a line: luciferase reporter signal reduction – luminescence, H4-C neuroglioblastoma cells, dose response (AID 2458).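 Also: H4 neuroglioblastoma cells stably carrying a luciferase reporter gene fusion.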 It counts as functional, cell-based.
A short description of data set [13]: Luminescence Cell-Based Dose Response HTS to Identify Inhibitors of 5'UTR Stem-Loop Driven Prion Protein mRNA Translation in H4 Neuroglioblastoma Cells. [Related pubchem assays: 1827 (Project Summary), 1813 (Primary HTS)]. It counts as functional.
In the next data set the target is Cytochrome P450 2C19 (Homo sapiens, UniProt P33261). As to the kind of experiment: Cytochrome panel assay with activity outcomes. Panel member name: p450-cyp2c19 Compounds with AC50 equal or less than 10 uM are considered active. It counts as functional.
The next data set concerns the target T2, Cytochrome P450 1A2 (Homo sapiens, UniProt P05177).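 Also: PubChem cytochrome P450 panel assay, CYP1A2 panel member.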
T2 sequence (P05177 whole entry): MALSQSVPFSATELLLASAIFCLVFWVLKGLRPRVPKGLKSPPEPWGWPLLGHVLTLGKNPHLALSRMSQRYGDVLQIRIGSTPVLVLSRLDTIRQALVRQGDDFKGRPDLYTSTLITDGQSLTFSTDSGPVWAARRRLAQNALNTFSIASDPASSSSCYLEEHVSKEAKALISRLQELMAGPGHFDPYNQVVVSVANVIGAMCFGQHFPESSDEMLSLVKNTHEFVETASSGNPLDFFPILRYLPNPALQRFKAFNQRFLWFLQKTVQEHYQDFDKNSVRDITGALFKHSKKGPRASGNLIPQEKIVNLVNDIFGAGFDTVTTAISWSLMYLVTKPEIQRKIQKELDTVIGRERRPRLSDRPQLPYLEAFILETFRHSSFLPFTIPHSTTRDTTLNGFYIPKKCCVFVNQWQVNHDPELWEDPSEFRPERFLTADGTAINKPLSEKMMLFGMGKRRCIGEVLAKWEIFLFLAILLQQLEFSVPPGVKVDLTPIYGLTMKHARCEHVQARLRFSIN

Another data set concerns the target Cytochrome P450 2C9 (Homo sapiens, UniProt P11712).
Data set [14] deals with A-375. Put plainly: MITF: Counter assay: A375 proliferation Measured in Cell-Based System Using Plate Reader - 2084-03_Inhibitor_Dose_DryPowder_Activity. [Related pubchem assays (depositor defined):AID488944]. It counts as functional. To be noted: Homo sapiens.
The subject of data set [15] is A-375. Put plainly: proliferation inhibition in MITF-low A375 cells – cell-based, cherry-pick samples, set 2, counter-screen for MITF modulator project, dose response (AID 540335). It counts as functional. The settings on record: Homo sapiens.
A short description of data set [16]: viability of HCT116 lacking mutant beta-catenin – cell-based, human colon tumor, dose response (AID 1045).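 Also: HCT116 colon tumor cells with beta catenin knocked out; cells exposed to compound for 60 hours.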 The format is functional.
The nature of data set [17]: viability of PTEN-deleted HCT116 cells – cell-based, HCT116 PTEN knockout, dose response (AID 1047).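 Also: HCT116 colon tumor cells with PTEN knocked out; cells exposed to compound for 60 hours before readout; potency for loss of cell viability measured by luminescence.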 The format is functional.
The target in data set [18] is T3, Short transient receptor potential channel 4 (Mus musculus, UniProt Q9QUQ5).
T3 sequence (Q9QUQ5 whole entry): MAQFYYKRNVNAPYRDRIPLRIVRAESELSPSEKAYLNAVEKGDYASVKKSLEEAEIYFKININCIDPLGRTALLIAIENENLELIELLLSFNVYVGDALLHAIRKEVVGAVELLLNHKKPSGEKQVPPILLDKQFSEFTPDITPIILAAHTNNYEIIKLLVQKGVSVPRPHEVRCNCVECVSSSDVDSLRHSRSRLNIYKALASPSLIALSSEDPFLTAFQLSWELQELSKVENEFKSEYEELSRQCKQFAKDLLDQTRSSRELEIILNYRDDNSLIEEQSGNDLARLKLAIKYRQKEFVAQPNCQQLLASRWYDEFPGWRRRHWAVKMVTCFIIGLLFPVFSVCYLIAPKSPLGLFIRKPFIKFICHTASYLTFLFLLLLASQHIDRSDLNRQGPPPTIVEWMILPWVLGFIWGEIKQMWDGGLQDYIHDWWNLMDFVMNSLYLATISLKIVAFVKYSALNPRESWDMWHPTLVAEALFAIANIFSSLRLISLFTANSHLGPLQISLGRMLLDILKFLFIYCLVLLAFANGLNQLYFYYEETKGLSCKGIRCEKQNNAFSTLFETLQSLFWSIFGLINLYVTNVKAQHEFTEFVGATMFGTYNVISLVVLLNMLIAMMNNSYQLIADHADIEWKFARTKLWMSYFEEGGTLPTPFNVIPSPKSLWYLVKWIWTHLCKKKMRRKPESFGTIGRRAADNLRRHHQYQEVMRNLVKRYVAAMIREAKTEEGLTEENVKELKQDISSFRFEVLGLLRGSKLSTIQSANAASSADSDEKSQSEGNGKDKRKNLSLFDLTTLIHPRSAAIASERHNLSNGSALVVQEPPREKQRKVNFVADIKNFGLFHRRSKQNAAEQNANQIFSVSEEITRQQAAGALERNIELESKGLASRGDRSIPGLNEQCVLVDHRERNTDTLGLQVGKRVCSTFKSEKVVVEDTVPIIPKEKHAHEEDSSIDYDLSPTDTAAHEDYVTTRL
As to the kind of experiment: potency of mouse TRPC4 calcium flux blockers – cell-based, HEK293 TRPC4/mu-opioid, DAMGO stimulus, Fluo-4, dose response (AID 492994). It counts as functional.

The target of data set [19] is T3, Short transient receptor potential channel 4. Put plainly: mouse TRPC4 block via Gq-coupled stimulation – cell-based, acetylcholine stimulus, HEK293 TRPC4, Fluo-4, SAR follow-up (AID 492996). It counts as functional.
Data set [20] shares this target. Put plainly: block of DAMGO-driven TRPC4 calcium entry – cell-based, HEK293 TRPC4/mu-opioid, Fluo-4 calcium, dose response (AID 434942).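 Also: potency of inhibitors blocking the TRPC4 calcium response.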 It counts as functional.
Data set [21] has the same target. Put plainly: SAR Analysis for the identification of selective inhibitors of the transient receptor potential cation channel C4 (TRPC4): TRPC4 Serotonin Receptor CRC MPD assay. [Related pubchem assays (depositor defined):AID2247, AID2256]. It counts as functional.
Data set [22] has the same target. Put plainly: SAR Analysis for the identification of selective inhibits of the transient receptor potential cation channel C4 (TRPC4): Automated Electrophysiology. [Related pubchem assays (depositor defined):AID2256]. The format is functional.

Cytochrome P450 2C9, sequence (P11712 whole entry): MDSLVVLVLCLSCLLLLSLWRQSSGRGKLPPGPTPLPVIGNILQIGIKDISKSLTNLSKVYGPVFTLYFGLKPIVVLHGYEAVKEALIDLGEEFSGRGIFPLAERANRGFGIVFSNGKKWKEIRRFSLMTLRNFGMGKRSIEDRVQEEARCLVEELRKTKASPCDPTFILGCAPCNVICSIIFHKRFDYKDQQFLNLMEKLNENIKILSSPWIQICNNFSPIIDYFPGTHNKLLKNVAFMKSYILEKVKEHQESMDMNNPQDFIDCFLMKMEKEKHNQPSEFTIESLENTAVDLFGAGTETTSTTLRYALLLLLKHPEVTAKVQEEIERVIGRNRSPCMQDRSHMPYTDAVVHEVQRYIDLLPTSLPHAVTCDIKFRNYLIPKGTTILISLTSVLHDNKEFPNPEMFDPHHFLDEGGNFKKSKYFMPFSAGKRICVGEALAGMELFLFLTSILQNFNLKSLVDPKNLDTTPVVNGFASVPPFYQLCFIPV
Cytochrome P450 2C19, sequence (P33261 whole entry): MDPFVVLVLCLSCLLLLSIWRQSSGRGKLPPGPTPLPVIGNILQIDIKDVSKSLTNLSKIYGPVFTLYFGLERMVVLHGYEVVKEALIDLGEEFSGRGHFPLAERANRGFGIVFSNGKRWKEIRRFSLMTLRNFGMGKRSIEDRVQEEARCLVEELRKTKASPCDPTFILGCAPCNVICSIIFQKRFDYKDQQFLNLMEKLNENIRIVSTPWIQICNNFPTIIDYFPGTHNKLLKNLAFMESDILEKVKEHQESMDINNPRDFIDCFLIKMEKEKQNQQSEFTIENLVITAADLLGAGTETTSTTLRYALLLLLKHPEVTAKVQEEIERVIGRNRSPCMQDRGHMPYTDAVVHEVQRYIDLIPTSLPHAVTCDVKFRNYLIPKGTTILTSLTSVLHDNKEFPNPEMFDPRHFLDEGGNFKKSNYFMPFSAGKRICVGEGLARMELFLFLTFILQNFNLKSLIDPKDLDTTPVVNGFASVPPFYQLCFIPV

Consider `CCn1ccnc1CN(C)C(=O)c1cc(COc2ccc(Cl)cc2OC)on1`, for which the EC50 – broadly, the concentration needed to bring the measured effect to its halfway point – in data set [1] is > 195 µM (not active). Further, the AC50 (as a rule, the concentration at which the activity in the assay is half-maximal) in the data set with Escherichia coli was 160 µM (active).

Consider `COc1ccc(C(NC(=O)CCc2ccccc2)c2ccc3cccnc3c2O)cc1` (stereo not drawn), for which the IC50 – broadly, the concentration that inhibits the measured activity by half – is 2.52 µM (active) in the data set with Jurkat [2], 2.3 µM (active) with HEK293 [3] and 22.5 µM (inactive) in the data set on HEK293 [4].

As to `CC(C)(C)c1ccc(-c2noc(CCC(=O)Nc3cccnc3)n2)cc1`, the EC50 is 0.774 µM (active) in [5]; < 0.1 µM (active) in data set [7]; < 0.1 µM (active) in data set [8]; 0.321 µM (active) in the data set “cells”; 1.18 µM (active) in [12]; < 0.1 µM (active) in data set [13]. Further, the IC50 is 0.435 µM (active) with Jurkat [6]; 0.47 µM (active) with HEK293 [9]; > 39.8 µM (not active) in [10]; > 80 µM (inactive) in [11]; 20.5 µM (inactive) in the data set with HEK293 [4].

For the molecule `Cc1noc(C)c1C(=O)N1CCC2(CCCN(C(=O)NC(C)C)C2)CC1`, the AC50 result on Cytochrome P450 2C19, on Cytochrome P450 1A2 and on Cytochrome P450 2C9 was “inconclusive” each time.

With `CN(C)CCNC(=O)/C(=C/c1ccc(-c2ccc(Cl)cc2)o1)NC(=O)c1ccccc1`, the AC50 with A-375 [14] and in the data set with A-375 [15] was > 11 µM (active) throughout. Also, the results for the EC50 in data set [16] and in data set [17] were 9.77 µM (active) and 10.9 µM (active), respectively.

On to `Cc1cc(N2CCCCC2)nc2ccccc12`, for which the IC50 in data set [18] is 0.82 µM (active); in [19], 1.23 µM (active); in data set [21] it was 2.24 µM (active); in data set [22], 2.63 µM (active). For the same molecule, the EC50 in data set [20] was 0.0027 µM (active).

(Values after ChEMBL document CHEMBL1201862, “PubChem BioAssay data set” (2004).)
